Measurements: patent publication US12071404B2, “Aza (indole)-, benzothiophene-, and benzofuran-3-sulfonamides” (UCB Pharma GmbH, priority 2016, dated 2024)

What was measured:
GPR17 [1] = target: T1, GPR17 (Homo sapiens, UniProt Q13304); experiment: Calcium mobilization functional assay (GPR17 Ca2+ assay); format: cell-based; set-up: host or cells: Flp-In T-REx CHO; details: CHO hGPR17 cells, inhibition of 50 nM MDL29,951, Calcium 5 dye, FLIPR; read-out: Ca2+ assay pIC50 (converted)
Method in brief: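 pIC50 values were fitted with a 4-parameter logistic curve. They reflect test-compound inhibition of cytosolic Ca2+ release evoked by 50 nM MDL29,951, tracked as Calcium 5 fluorescence at room temperature. Cells were CHO Flp-In T-REx stably carrying human GPR17, induced with doxycycline 1 μg/mL for 16-20 h.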

GPR17 [2] = target: T1, GPR17; experiment: cAMP accumulation functional assay (HTRF, Schild analysis); format: cell-based; set-up: host or cells: Flp-In T-REx CHO; details: CHO hGPR17 cells, Schild analysis vs MDL29,951, 5 μM forskolin, read-out: cAMP assay pA2 (converted)
Method in brief: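 Antagonist affinity (pA2) came from Schild plots of dose ratios, based on MDL29,951 concentration-response curves fitted by 4-parameter logistic. The read-out was HTRF cAMP in 5,000 doxycycline-induced CHO hGPR17 cells per well, with 30 min compound preincubation and 60 min stimulation, at room temperature in pH 7.4 buffer.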

T1 sequence (Q13304 whole entry): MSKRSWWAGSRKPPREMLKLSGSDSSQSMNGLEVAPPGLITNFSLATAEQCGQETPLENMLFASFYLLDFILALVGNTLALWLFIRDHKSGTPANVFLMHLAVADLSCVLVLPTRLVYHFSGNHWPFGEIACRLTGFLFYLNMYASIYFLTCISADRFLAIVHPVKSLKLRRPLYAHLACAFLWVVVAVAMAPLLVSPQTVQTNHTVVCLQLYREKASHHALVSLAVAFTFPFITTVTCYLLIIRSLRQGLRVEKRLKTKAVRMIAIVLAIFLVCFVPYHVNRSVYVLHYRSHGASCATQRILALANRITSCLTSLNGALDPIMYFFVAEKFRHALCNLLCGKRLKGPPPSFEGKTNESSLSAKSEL

Compound	IC50 (GPR17 [1])	Kb (GPR17 [2])
O=S(=O)(Nc1ncc(F)cc1F)c1c[nH]c2cc(Cl)ccc12 [Compound I-302, 6-chloro-N-(3,5-difluoropyridin-2-yl)-1H-indole-3-sulfonamide]	3.16 to 31.6 nM	3.16 to 31.6 nM
N#Cc1ccc(NS(=O)(=O)c2coc3cc(Cl)ccc23)cc1 [Compound I-139, 6-chloro-N-(4-cyanophenyl)-1-benzofuran-3-sulfonamide]	3.16 to 31.6 nM	> 31.6 nM
N#Cc1cc(NS(=O)(=O)c2c[nH]c3cc(Cl)ccc23)c2c(c1)OC(F)(F)O2 [Compound I-132, 6-chloro-N-(6-cyano-2,2-difluoro-1,3-benzodioxol-4-yl)-1H-indole-3-sulfonamide]	3.16 to 31.6 nM	3.16 to 31.6 nM
O=S(=O)(Nc1ccc2nsnc2c1)c1c[nH]c2cc(Br)ccc12 [Compound I-183, N-(2,1,3-benzothiadiazol-5-yl)-6-bromo-1H-indole-3-sulfonamide]	< 3.16 nM	< 3.16 nM
O=S(=O)(Nc1cc(F)c(C(F)(F)F)cc1F)c1c[nH]c2cc(Cl)ccc12 [Compound I-269, 6-chloro-N-[2,5-difluoro-4-(trifluoromethyl)phenyl]-1H-indole-3-sulfonamide]	< 3.16 nM	< 3.16 nM
COc1cc(Br)c(F)nc1NS(=O)(=O)c1c[nH]c2cc(Cl)ccc12 [Compound I-349, N-(5-bromo-6-fluoro-3-methoxypyridin-2-yl)-6-chloro-1H-indole-3-sulfonamide]	< 3.16 nM	< 3.16 nM
Cc1cc(F)c(NS(=O)(=O)c2c[nH]c3cc(Cl)ccc23)nc1F [Compound I-348, 6-chloro-N-(3,6-difluoro-5-methylpyridin-2-yl)-1H-indole-3-sulfonamide]	< 3.16 nM	3.16 to 31.6 nM
[N-]=[N+]=Nc1ccc(NS(=O)(=O)c2c[nH]c3cc(Cl)ccc23)c(F)c1 [Compound I-241, N-(4-azido-2-fluorophenyl)-6-chloro-1H-indole-3-sulfonamide]	3.16 to 31.6 nM	3.16 to 31.6 nM
CCO/C=C/c1cc(F)c(NS(=O)(=O)c2c[nH]c3cc(Cl)ccc23)nc1F [Compound I-332, 6-chloro-N-{5-[(E)-2-ethoxyethenyl]-3,6-difluoropyridin-2-yl}-1H-indole-3-sulfonamide]	3.16 to 31.6 nM	< 3.16 nM
O=S(=O)(Nc1ccc(Cl)cc1F)c1c[nH]c2nc(Br)ccc12 [Compound I-278, 6-bromo-N-(4-chloro-2-fluorophenyl)-1H-pyrrolo[2,3-b]pyridine-3-sulfonamide]	3.16 to 31.6 nM	< 3.16 nM
N#CCOc1cc(F)c(NS(=O)(=O)c2coc3cc(Cl)ccc23)cc1F [Compound I-342, 6-chloro-N-[4-(cyanomethoxy)-2,5-difluorophenyl]-1-benzofuran-3-sulfonamide]	3.16 to 31.6 nM	3.16 to 31.6 nM
O=S(=O)(Nc1ncc(Cl)cc1F)c1c[nH]c2c1ccc1ccccc12 [Compound I-191, N-(5-chloro-3-fluoropyridin-2-yl)-1H-benzo[g]indole-3-sulfonamide]	3.16 to 31.6 nM	< 3.16 nM
O=C1OCc2ccc(NS(=O)(=O)c3c[nH]c4cc(Cl)ccc34)cc21 [Compound I-8, 6-chloro-N-(3-oxo-1,3-dihydro-2-benzofuran-5-yl)-1H-indole-3-sulfonamide]	> 31.6 nM	> 31.6 nM
O=S(=O)(Nc1cc(F)c(Cl)cc1F)c1csc2cc(Cl)ccc12 [Compound I-312, 6-chloro-N-(4-chloro-2,5-difluorophenyl)-1-benzothiophene-3-sulfonamide]	3.16 to 31.6 nM	3.16 to 31.6 nM
O=S(=O)(Nc1ccc2nonc2c1)c1c[nH]c2cc(Cl)ccc12 [Compound I-201, N-(2,1,3-benzoxadiazol-5-yl)-6-chloro-1H-indole-3-sulfonamide]	> 31.6 nM	< 3.16 nM
N#Cc1ccc(NS(=O)(=O)c2c[nH]c3c4c(ccc23)CCC4)c(F)c1 [Compound I-150, N-(4-cyano-2-fluorophenyl)-1,6,7,8-tetrahydrocyclopenta[g]indole-3-sulfonamide]	3.16 to 31.6 nM	< 3.16 nM
O=S(=O)(Nc1ccc(Cl)cn1)c1c[nH]c2cc(Cl)ccc12 [Compound I-63, 6-chloro-N-(5-chloropyridin-2-yl)-1H-indole-3-sulfonamide]	> 31.6 nM	3.16 to 31.6 nM
COCCCc1cc(F)c(NS(=O)(=O)c2c[nH]c3cc(Cl)ccc23)nc1F [Compound I-253, 6-chloro-N-[3,6-difluoro-5-(3-methoxypropyl)pyridin-2-yl]-1H-indole-3-sulfonamide]	< 3.16 nM	< 3.16 nM
O=S(=O)(Nc1cccc2nonc12)c1c[nH]c2cc(Cl)ccc12 [Compound I-216, N-(2,1,3-benzoxadiazol-4-yl)-6-chloro-1H-indole-3-sulfonamide]	3.16 to 31.6 nM	3.16 to 31.6 nM

Compound	IC50 (GPR17 [1])	Kb (GPR17 [2])
N#Cc1ccc(NS(=O)(=O)c2c[nH]c3cc(C4CC4)ccc23)cc1 [Compound I-133, N-(4-cyanophenyl)-6-cyclopropyl-1H-indole-3-sulfonamide]	< 3.16 nM	3.16 to 31.6 nM
O=S(=O)(Nc1ccc(Br)c(Cl)n1)c1c[nH]c2cc(Cl)ccc12 [Compound I-275, N-(5-bromo-6-chloropyridin-2-yl)-6-chloro-1H-indole-3-sulfonamide]	3.16 to 31.6 nM	3.16 to 31.6 nM
O=S(=O)(Nc1ccc(I)cc1F)c1c[nH]c2nc(Cl)ccc12 [Compound I-94, 6-chloro-N-(2-fluoro-4-iodophenyl)-1H-pyrrolo[2,3-b]pyridine-3-sulfonamide]	3.16 to 31.6 nM	3.16 to 31.6 nM
COc1nc(NS(=O)(=O)c2c[nH]c3c2ccc2ccccc23)c(F)cc1Cl [Compound I-329, N-(5-chloro-3-fluoro-6-methoxypyridin-2-yl)-1H-benzo[g]indole-3-sulfonamide]	< 3.16 nM	< 3.16 nM
O=S(=O)(Nc1cccc2c1OCO2)c1c[nH]c2nc(Br)ccc12 [Compound I-97, N-(1,3-benzodioxol-4-yl)-6-bromo-1H-pyrrolo[2,3-b]pyridine-3-sulfonamide]	3.16 to 31.6 nM	3.16 to 31.6 nM
Cc1ccc(NS(=O)(=O)c2c[nH]c3cc(Cl)ccc23)c(F)c1 [Compound I-56, 6-chloro-N-(2-fluoro-4-methylphenyl)-1H-indole-3-sulfonamide]	> 31.6 nM	3.16 to 31.6 nM
O=S(=O)(Nc1cccc2n[se]nc12)c1c[nH]c2cc(Cl)ccc12 [Compound I-142, N-(2,1,3-benzoselenadiazol-4-yl)-6-chloro-1H-indole-3-sulfonamide]	< 3.16 nM	< 3.16 nM
Cc1cc(F)c(NS(=O)(=O)c2c[nH]c3c(F)c(Cl)ccc23)nc1F [Compound I-355, 6-chloro-N-(3,6-difluoro-5-methylpyridin-2-yl)-7-fluoro-1H-indole-3-sulfonamide]	< 3.16 nM	3.16 to 31.6 nM
O=S(=O)(Nc1cc(F)c(Cl)cc1F)c1c[nH]c2c(F)c(Cl)ccc12 [Compound I-242, 6-chloro-N-(4-chloro-2,5-difluorophenyl)-7-fluoro-1H-indole-3-sulfonamide]	3.16 to 31.6 nM	< 3.16 nM
N#Cc1ccc(NS(=O)(=O)c2c[nH]c3cc(Cl)ccc23)cc1Cl [Compound I-181, 6-chloro-N-(3-chloro-4-cyanophenyl)-1H-indole-3-sulfonamide]	3.16 to 31.6 nM	3.16 to 31.6 nM
CCc1cc(F)c(NS(=O)(=O)c2c[nH]c3cc(Cl)ccc23)nc1F [Compound I-338, 6-chloro-N-(5-ethyl-3,6-difluoropyridin-2-yl)-1H-indole-3-sulfonamide]	< 3.16 nM	< 3.16 nM
C#Cc1ccc(NS(=O)(=O)c2c[nH]c3cc(Cl)ccc23)c(F)c1 [Compound I-210, 6-chloro-N-(4-ethynyl-2-fluorophenyl)-1H-indole-3-sulfonamide]	3.16 to 31.6 nM	< 3.16 nM
COc1ccc2c(S(=O)(=O)Nc3cc(F)c(Br)cc3F)c[nH]c2c1 [Compound I-285, N-(4-bromo-2,5-difluorophenyl)-6-methoxy-1H-indole-3-sulfonamide]	< 3.16 nM	< 3.16 nM
O=S(=O)(Nc1ncc(Cl)cc1F)c1c[nH]c2cc(Cl)ccc12 [Compound I-202, 6-chloro-N-(5-chloro-3-fluoropyridin-2-yl)-1H-indole-3-sulfonamide]	< 3.16 nM	3.16 to 31.6 nM
C[S+]([O-])c1ccc2c(S(=O)(=O)Nc3ccc(C#N)cc3)c[nH]c2c1 (centres unmarked) [Compound I-237, N-(4-cyanophenyl)-6-(methylsulfinyl)-1H-indole-3-sulfonamide]	> 31.6 nM	> 31.6 nM
COc1ccc2c(S(=O)(=O)Nc3cc(F)c(Cl)cc3F)c[nH]c2c1 [Compound I-221, N-(4-chloro-2,5-difluorophenyl)-6-methoxy-1H-indole-3-sulfonamide]	3.16 to 31.6 nM	3.16 to 31.6 nM
COc1ccc2c(S(=O)(=O)Nc3cc(F)c(C#N)cc3OC)c[nH]c2c1 [Compound I-288, N-(4-cyano-5-fluoro-2-methoxyphenyl)-6-methoxy-1H-indole-3-sulfonamide]	< 3.16 nM	3.16 to 31.6 nM
N#CCOc1cc(F)c(NS(=O)(=O)c2c[nH]c3cc(Cl)ccc23)cc1F [Compound I-257, 6-chloro-N-[4-(cyanomethoxy)-2,5-difluorophenyl]-1H-indole-3-sulfonamide]	< 3.16 nM	< 3.16 nM
